Entries after “also recorded” stand apart in the source; their conditions may differ.
Legend:
[1] = tested on: prefrontal neurons from wildtype littermates; experiment: Whole-cell current-clamp AP output in prefrontal neurons from wildtype littermates; format: cell-based, mouse
Procedure: (§1) In the mouse model used for Pitt-Hopkins syndrome (Sweatt, 2013) mice are heterozygous for a deletion of the DNA-binding domain of the Transcription Factor 4 (B6; 129-TCF4tm1Zhu/J; stock number 013598, Jackson Laboratory, Bar Harbor, Me.) (Zhuang et al., 1996). Control mouse experiments were conducted with wild-type littermates. Mice were maintained by SoBran on a 12-hour light cycle and fed ad libitum.
(§2) Acute brain slices were obtained from rats and mice as described previously (Maher and Loturco, 2012b). […]
(§3) For all experiments, artificial cerebrospinal fluid (ACSF) was oxygenated (95% O2 and 5% CO2) and contained in (in mM): 125 NaCl, 25 NaHCO3, 1.25 NaH2PO4, 3 KCl, 25 dextrose, 1 MgCl2, and 2 CaCl2, pH 7.3. […] Current signals were recorded with either a Multiclamp 700A (Molecular Devices) or with an Axopatch 200B amplifier (Molecular Devices) and were filtered at 2 kHz using a built-in Bessel filter and digitized at 10 kHz. […]
(§4) Axograph was used on a Macintosh computer for analysis. […] Each current pulse was measured in triplicate, and the number of resulting APs was averaged. For analysis of fAHP amplitude, the second and third current evoked spikes within the 600 ms pulse were measured. The fAHP potential was measured by subtracting the voltage at the peak of the fAHP from the threshold potential for spike initiation (slope of AP exceeds 50 mV/ms). […]

TCF4+/tr cells = experiment: Whole-cell current-clamp AP spiking in mPFC layer 2/3 neurons of the PTHS mouse model; format: cell-based
Procedure: as §1, §2, §3, §4

crTCF4 cells = experiment: Whole-cell current-clamp AP spiking in crTCF4 (CRISPR-Cas9 TCF4 mutated) mPFC neurons; format: cell-based, rat
Procedure: (§5) Pregnant Wistar rats were obtained from Charles River Laboratories, Inc., maintained by SoBran on a 12-hour light cycle and fed ad libitum. In utero electroporation was performed as previously described (Chen et al., 2014; Maher and Loturco, 2012a). Electroporation was performed on embryonic day 16 (E16) and gestation age was confirmed during surgery. All plasmids were used at a final concentration of 1.5 μg/μl, and the mPFC was targeted for transfection. Pregnant dams were returned to the same housing conditions after recovery from surgery, and after litters were born, transfected rats were used for experiments at days P18-24.
as §2
(§6) For all experiments, artificial cerebrospinal fluid (ACSF) was oxygenated (95% O2 and 5% CO2) and contained in (in mM): 125 NaCl, 25 NaHCO3, 1.25 NaH2PO4, 3 KCl, 25 dextrose, 1 MgCl2, and 2 CaCl2, pH 7.3. […] Current signals were recorded with either a Multiclamp 700A (Molecular Devices) or with an Axopatch 200B amplifier (Molecular Devices) and were filtered at 2 kHz using a built-in Bessel filter and digitized at 10 kHz.

shTCF4 cells = experiment: Whole-cell current-clamp recordings (AP spiking, mAHP/sAHP) in shTCF4 (TCF4 knockdown) mPFC layer 2/3 pyramidal neurons, acute brain slices; format: cell-based, rat; conditions: shTCF4 cells
Procedure: as §5
(§7) Acute brain slices were obtained from rats and mice as described previously (Maher and Loturco, 2012b). Briefly, P18-24 male and female animals were deeply anesthetized with isoflurane and transcardially perfused with ice-cold oxygenated (95% O2 and 5% CO2) dissecting buffer containing (in mM): 83 NaCl, 2.5 KCl, 1 NaH2PO4, 26.2 NaHCO3, 22 glucose, 72 sucrose, 0.5 CaCl2, and 3.3 MgCl2. Animals were humanly sacrificed and decapitated and the brains were rapidly removed and immersed in ice-cold oxygenated dissection buffer. Coronal slices (300 μm) were cut using a vibratome (Microm HM650V), incubated in dissection buffer for 30-45 minutes at 34° C., and then stored at room temperature. Slices were visualized using IR differential interference microscopy (DIC) (Olympus BX51WI) and a CCD camera (QICAM, QImaging). Individual layer 2/3 pyramidal cells expressing EGFP in rat brain slices were visualized with epifluorescent illumination and a 43× Olympus LUMPlanFLN (0.8 numerical aperture) objective.
(§8) For all experiments, artificial cerebrospinal fluid (ACSF) was oxygenated (95% O2 and 5% CO2) and contained in (in mM): 125 NaCl, 25 NaHCO3, 1.25 NaH2PO4, 3 KCl, 25 dextrose, 1 MgCl2, and 2 CaCl2, pH 7.3. Patch pipettes were fabricated from borosilicate glass (N51A, King Precision Glass, Inc.) to a resistance of 2-5 MΩ. For current- and voltage-clamp measurements, pipettes were filled with (in mM): 125 potassium gluconate, 10 HEPES, 4 Mg-ATP, 0.3 Na-GTP, 0.1 EGTA, 10 phosophocreatine, 0.05% biocytin, adjusted to pH 7.3 with KOH. For all experiments GABAa receptors were blocked with SR-95531 (Gabazine, 5 μM, Ascent Scientific). For AHP current experiments, synaptic currents were blocked with DL-2-amino-5-phosphopentanoic acid (D,L-AP5, 100 μM, Ascent Scientific), 2,3, dioxo-6-nitro-1,2,3,4, tetrahydrobenzo-quinoxaline-7-sulfonamide (NBQX, 10 μM) and SR-95531 (Gabazine, 5 μM, Ascent Scientific). Ca2+-activated currents were blocked with Tetraethylammonium chloride (TEA, 1 mM, Abcam), apamin (100 nM, Abcam), and carbachol (10 μM, Abcam). Current signals were recorded with either a Multiclamp 700A (Molecular Devices) or with an Axopatch 200B amplifier (Molecular Devices) and were filtered at 2 kHz using a built-in Bessel filter and digitized at 10 kHz. Voltage signals were filtered at 2 kHz and digitized at 10 kHz. Data were acquired using Axograph on a Dell PC. Data acquisition was terminated when series resistance was >15 MΩ. For voltage clamp recordings, pyramidal cells were held at −60 mV. No holding current was used for current-clamp recordings.
(§9) Axograph was used on a Macintosh computer for analysis. To measure spike frequency, EGFP-positive layer 2/3 neurons of the mPFC were injected with a 600 ms depolarizing current pulses ranging from 50 to 500 pA at 50 pA increments with an 10 s inter-trial interval. Each current pulse was measured in triplicate, and the number of resulting APs was averaged. For analysis of fAHP amplitude, the second and third current evoked spikes within the 600 ms pulse were measured. The fAHP potential was measured by subtracting the voltage at the peak of the fAHP from the threshold potential for spike initiation (slope of AP exceeds 50 mV/ms). The mAHP potential was measured at the peak of the AHP that followed the 600 ms current pulse. […]

crEmpty cells = experiment: Whole-cell current-clamp AP spiking in crEmpty (CRISPR control) mPFC neurons; format: cell-based, rat
Procedure: as §5, §2, §6

shCon cells = experiment: Whole-cell current-clamp recordings (AP spiking, mAHP/sAHP) in shCon (control shRNA) mPFC layer 2/3 pyramidal neurons, acute brain slices; format: cell-based, rat
Procedure: as §5, §7, §8, §9

KCNQ2 = KCNQ2 (Homo sapiens, UniProt O43526); conditions: KCNQ subtype-selective blocker; Soh and Tzingounis, 2010; cited from earlier work
KCNQ1 = KCNQ1 (Homo sapiens, UniProt P51787); conditions: KCNQ subtype-selective blocker; Soh and Tzingounis, 2010; cited from earlier work

In the case of `COc1cc(NC(=O)c2ccc(-c3ccc(Cl)cc3)o2)cc(OC)c1` [A-803467, 5-(4-Chlorophenyl)-N-(3,5-dimethoxyphenyl)-2-furancarboxamide], the “effect on action potential output” value ([1]; A-803467, p=0.06, N=5) is reported as “has no effect on action potential output”, the “effect on the frequency of APs” value (TCF4+/tr cells; A-803467, significant for current pulses 250-350 pA, N=8) is reported as “effective at rescuing AP output; also recorded: significantly increased firing frequency” and the “effect on the frequency of APs” value (crTCF4 cells; A-803467, significant for current pulses 400-500 pA, N=8, p=0.039) is reported as “effective at increasing firing frequency; also recorded: significantly increased firing frequency”. For the same molecule, the “effect on the frequency of APs generated in response to increasing current injections” value (shTCF4 cells; A-803467 200 nM bath application, significant for current pulses 350-500 pA, N=11, p<0.05) was “effective at increasing firing frequency; also recorded: significantly increased firing”, the “effect on AP frequency” value (crEmpty cells; A-803467, p=0.15) was “had no effect on firing frequency; also recorded: No effect on AP frequency” and the “effect on firing frequency” value (shCon cells; A-803467, N=7, p=0.14) was “had no effect on firing frequency”.

In the case of `c1ccc(C(NCc2cccnc2)(c2ccccc2)c2ccccc2)cc1` [UCL2077, N-Trityl-3-pyridinemethanamine], the “inhibition of KCNQ2” value (KCNQ2) is listed as “strongly inhibits”, the “effect on action potential output” value ([1]; UCL2077, p=0.58, N=11) is listed as “has no effect on action potential output” and the “inhibition of KCNQ1” value (KCNQ1) is listed as “strongly inhibits”. For the same molecule, the “effect on the frequency of AP spiking” value (TCF4+/tr cells; UCL2077, N=8) was “had no effect; also recorded: has no effect on the frequency of AP spiking”, the “effect on the frequency of APs” value (crTCF4 cells; UCL2077, significant for current pulses 400-500 pA, N=7, p=0.045) was “significantly increased firing frequency” and the “effect on the frequency of APs generated in response to current injections” value (shTCF4 cells; UCL2077 10 μM, before vs after, within neuron, significant for current pulses 250-500 pA, N=17, p=0.0002) was “effective at increasing the spiking frequency; also recorded: significantly increased firing frequency”. For the same molecule, the “amplitude of the sAHP after application” value (shTCF4 cells; UCL2077, before −2.88±0.42 mV, N=19, p<0.05) was −2.53±0.38 mV, the “amplitude of the mAHP after application” value (shTCF4 cells; UCL2077, before −4.43±0.55 mV, N=19, p=0.003) was −3.736±0.49 mV and the “effect on AP frequency” value (crEmpty cells; UCL2077, p=0.99) was “No effect on AP frequency”. The “effect on the frequency of APs (spiking)” value (shCon cells; UCL2077, N=8, p=0.35) was “neither UCL2077 (p=0.35) nor JNJ303 (p=0.11) had an effect on spiking”, the “amplitude of the sAHP after application” value (shCon cells; UCL2077, before −2.60±0.42 mV, N=9, not significant) was −2.69±0.48 mV and the “amplitude of the mAHP after application” value (shCon cells; UCL2077, before −3.78±0.66 mV, N=9, not significant) was −4.01±0.66 mV.

— patent publication US11221329B2, “Treatment of neurological and neurodevelopmental diseases and disorders associated with aberrant ion channel expression and activity” (LIEBER INSTITUTE FOR BRAIN DEVELOPMENT, priority 2015, dated 2022)
